Experimental data published in patent US20230023332A1, “OLEAN-PHENYLACRYLAMIDE DERIVATIVE, METHOD FOR PREPARING SAME, AND USE THEREOF” (Lunan Pharmaceutical Group Corporation, priority 2019, published 2023).
Like-named read-outs stand apart in the source and are kept apart here.

Legend:
Assay type in all cases: cell-based
[1] = system: human breast cancer cell strain MCF-7; assay: MTT proliferation inhibition, MCF-7; settings: Homo sapiens, MCF7, MCF-7 cells, 48 h, read-out: Inhibitory activity (IC50) against proliferation, MCF-7
Method: (§1) The anti-tumor activity of the compounds of the present invention was determined by the method of methyl thiazolyl tetrazolium (MTT), Bardoxolone Methyl (CDDO-Me) being selected as a positive control medicament.
(§2) Instruments: ultra-clean bench (SW-CJ-1FD, AIRTECH, Suzhou Antai Airtech Co. Ltd.), constant-temperature CO2 incubator (3111, Thermo, USA), inverted biomicroscope (IX71, OLYMPUS, Japan), ELISA microplate reader (Model 680, BIO-RAD, USA), platform shaker (Kylin-bell lab Instruments), autoclave (YXO.SG4I.280, Shanghai Huaxian), and centrifuge (SIGMA).
(§3) Reagents: DMEM (GIBCO), fetal bovine serum (GIBCO), trypsin (SIGMA), and DMSO (SIGMA).
(§4) Cell strains: human non-small cell lung cancer cell strain A549, human liver cancer cell strain HepG2, human breast cancer cell strain MCF-7, human renal tubular epithelial cells HK-2, rat embryonic cardiomyocytes H9C2 (all provided by Jiangsu KeyGEN BioTECH Co., Ltd.).
(§5) Methods: the cryopreserved cell strains were resuscitated and cultured in a CO2 incubator at a constant temperature of 37° C. with liquid being changed once daily. Plating was carried out when the cell strains were in a good state in the exponential phase. 1 mL of 0.25% trypsin solution was added for digestion for 1-2 min. The cell status was observed under the microscope, and when the adherent cells became round and shrunk, the digestion solution was aspirated and 1-2 mL of a DMEM medium containing 10% fetal bovine serum was added to obtain a cell suspension, on which a cell count was performed. The amount of required cell suspension was calculated on the basis of 5×10^4 cells per well and the total number of wells. The cell suspension was inoculated on a 96-well plate at 100 μL/well, the surroundings being blocked with PBS, followed by incubation in a CO2 incubator at a constant temperature of 37° C. for 24 h.
(§6) The test medicament, positive control medicament CDDO-Me, and blank control group DMSO were prepared in DMEM media to a final concentration of 5 μM/well, each medicament being placed in 3 replicate wells, followed by incubation for 48 h. The MTT reagent was added to the 96-well plate at 10 μL/well to further incubate for 4 h. The medium in the plate was aspirated and 100 μL of DMSO was added to each well, followed by shaking on the platform shaker for 10 min such that the crystals were dissolved. The absorbance of each well was examined by the ELISA microplate reader at a wavelength of 570 nm, and the cell inhibition rate was calculated according to the formula hereinafter. The mean value of three preliminary screening results was taken as the final inhibition rate thereof.
(§7) Cell inhibition rate (%)=[(OD value of blank control−OD value of dosing cohort)/OD value of blank control group]×100%

[2] = system: human non-small cell lung cancer cell strain A549; assay: MTT proliferation inhibition, A549; settings: Homo sapiens, A549 cells, 48 h, read-out: Inhibitory activity (IC50) against proliferation, A549
Method: as §1, §2, §3, §4, §5, §6, §7

[3] = system: human liver cancer cell strain HepG2; assay: MTT proliferation inhibition, HepG2; settings: Homo sapiens, HepG2 cells, 48 h, read-out: Inhibitory activity (IC50) against proliferation, HepG2
Method: as §1, §2, §3, §4, §5
The MTT reagent was added to the 96-well plate at 10 μL/well to further incubate for 4 h. The medium in the plate was aspirated and 100 μL of DMSO was added to each well, followed by shaking on the platform shaker for 10 min such that the crystals were dissolved. […] The mean value of three preliminary screening results was taken as the final inhibition rate thereof.
as §7

[4] = system: rat embryonic cardiomyocytes H9C2; assay: MTT proliferation inhibition / toxicity, H9C2; settings: Rattus norvegicus, H9C2 cardiomyocytes, MTT, 48 h, read-out: Inhibitory activity (IC50) against proliferation, H9C2
Method: as §1, §2, §3, §4, §5, §6, §7

[5] = system: human renal tubular epithelial cells HK-2; assay: MTT proliferation inhibition / toxicity, HK-2; settings: for IC50: Homo sapiens, HK-2 cells, MTT, 48 h, read-out: Inhibitory activity (IC50) against proliferation, HK-2; for toxicity to human renal tubular epithelial cells HK-2: statement in words
Method: as §1, §2, §3, §4, §5, §6, §7

Structure (SMILES) | IC50 [1] [nM] | IC50 [2] [nM] | IC50 [3] [nM] | IC50 [4] [nM] | IC50 [5] [nM] | toxicity to human renal tubular epithelial cells HK-2 [5] | IC50 ([4]; H9c2, 48 h) [nM]
Cc1ccc(/C=C(\C#N)C(=O)N[C@]23CCC(C)(C)C[C@H]2[C@H]2C(=O)C=C4[C@@]5(C)C=C(C#N)C(=O)C(C)(C)[C@@H]5CC[C@@]4(C)[C@]2(C)CC3)cc1 [Compound I-8] | 789 ± 52 | 329 ± 47 | 563 ± 23 | 274 ± 2 | 423 ± 30 | lower toxicity | 
CC1(C)CC[C@]2(NC(=O)/C=C/c3ccc(C(F)(F)F)cc3)CC[C@]3(C)[C@H](C(=O)C=C4[C@@]5(C)C=C(C#N)C(=O)C(C)(C)[C@@H]5CC[C@]43C)[C@@H]2C1 [Compound I-4] | 562 ± 132 | 402 ± 20 | 412 ± 6 | 215 ± 4 | 516 ± 72 | lower toxicity | 
COc1ccc(/C=C(\C#N)C(=O)N[C@]23CCC(C)(C)C[C@H]2[C@H]2C(=O)C=C4[C@@]5(C)C=C(C#N)C(=O)C(C)(C)[C@@H]5CC[C@@]4(C)[C@]2(C)CC3)cc1 [Compound I-9] | 1130 ± 40 | 624 ± 111 | 816 ± 14 | 417 ± 19 | 748 ± 341 | lower toxicity | 
CC1(C)CC[C@]2(NC(=O)/C=C(\C#N)c3ccc(Cl)cc3)CC[C@]3(C)[C@H](C(=O)C=C4[C@@]5(C)C=C(C#N)C(=O)C(C)(C)[C@@H]5CC[C@]43C)[C@@H]2C1 [Compound I-18] | 500 ± 170 | 300 ± 13 | 406 ± 17 |  | 647 ± 21 | lower toxicity | 
CC1(C)CC[C@]2(NC(=O)/C(C#N)=C/c3ccc(F)cc3)CC[C@]3(C)[C@H](C(=O)C=C4[C@@]5(C)C=C(C#N)C(=O)C(C)(C)[C@@H]5CC[C@]43C)[C@@H]2C1 [Compound I-11] | 424 ± 129 | 609 ± 67 | 337 ± 12 | 52 ± 1 | 308 ± 71 |  | 
CC1(C)CC[C@]2(NC(=O)/C=C(\C#N)c3ccccc3)CC[C@]3(C)[C@H](C(=O)C=C4[C@@]5(C)C=C(C#N)C(=O)C(C)(C)[C@@H]5CC[C@]43C)[C@@H]2C1 [Compound I-13] | 375 ± 130 | 414 ± 17 | 328 ± 13 |  | 473 ± 630 | lower toxicity | 7 ± 9
CC1(C)CC[C@]2(NC(=O)/C=C(\C#N)c3ccc(F)cc3)CC[C@]3(C)[C@H](C(=O)C=C4[C@@]5(C)C=C(C#N)C(=O)C(C)(C)[C@@H]5CC[C@]43C)[C@@H]2C1 [Compound I-17] | 238 ± 8 | 345 ± 174 | 114 ± 4 |  | 229 ± 126 |  | 
COc1ccc(/C(C#N)=C/C(=O)N[C@]23CCC(C)(C)C[C@H]2[C@H]2C(=O)C=C4[C@@]5(C)C=C(C#N)C(=O)C(C)(C)[C@@H]5CC[C@@]4(C)[C@]2(C)CC3)cc1 [Compound I-15] | 551 ± 140 | 658 ± 58 | 524 ± 32 | 146 ± 12 | 350 ± 37 |  | 
CC1(C)CC[C@]2(NC(=O)/C=C/c3ccccc3)CC[C@]3(C)[C@H](C(=O)C=C4[C@@]5(C)C=C(C#N)C(=O)C(C)(C)[C@@H]5CC[C@]43C)[C@@H]2C1 [Compound I-1] | 574 ± 21 | 599 ± 377 | 409 ± 16 | 251 ± 8 | 799 ± 92 | lower toxicity | 

Now from value to compound, other results behind:

IC50 [1] [nM] | IC50 [2] [nM] | IC50 [3] [nM] | Structure (SMILES) | IC50 [4] [nM] | IC50 [5] [nM] | toxicity to human renal tubular epithelial cells HK-2 [5] | IC50 ([4]; H9c2, 48 h) [nM]
432 ± 188 | 337 ± 15 | 313 ± 35 | Cc1ccc(/C(C#N)=C/C(=O)N[C@]23CCC(C)(C)C[C@H]2[C@H]2C(=O)C=C4[C@@]5(C)C=C(C#N)C(=O)C(C)(C)[C@@H]5CC[C@@]4(C)[C@]2(C)CC3)cc1 [Compound I-14] | 14 ± 1 | 939 ± 62 | lower toxicity | 
1310 ± 127 | 788 ± 345 | 785 ± 96 | CC1(C)CC[C@]2(NC(=O)/C=C/c3ccc(F)cc3)CC[C@]3(C)[C@H](C(=O)C=C4[C@@]5(C)C=C(C#N)C(=O)C(C)(C)[C@@H]5CC[C@]43C)[C@@H]2C1 [Compound I-5] | 316 ± 1 | 2825 ± 4 | lower toxicity | 
375 ± 38 | 367 ± 18 | 527 ± 133 | COc1ccc(/C=C/C(=O)N[C@]23CCC(C)(C)C[C@H]2[C@H]2C(=O)C=C4[C@@]5(C)C=C(C#N)C(=O)C(C)(C)[C@@H]5CC[C@@]4(C)[C@]2(C)CC3)cc1 [Compound I-3] | 174 ± 5 | 700 ± 16 | lower toxicity | 
738 ± 9 | 588 ± 36 | 482 ± 2 | CC1(C)CC[C@]2(NC(=O)/C=C/c3ccc(Cl)cc3)CC[C@]3(C)[C@H](C(=O)C=C4[C@@]5(C)C=C(C#N)C(=O)C(C)(C)[C@@H]5CC[C@]43C)[C@@H]2C1 [Compound I-6] | 373 ± 2 | 727 ± 430 | lower toxicity | 
547 ± 74 | 549 ± 10 | 772 ± 63 | Cc1ccc(/C=C/C(=O)N[C@]23CCC(C)(C)C[C@H]2[C@H]2C(=O)C=C4[C@@]5(C)C=C(C#N)C(=O)C(C)(C)[C@@H]5CC[C@@]4(C)[C@]2(C)CC3)cc1 [Compound I-2] | 218 ± 7 | 1390 ± 32 | lower toxicity | 
460 ± 105 | 362 ± 12 | 297 ± 11 | CC1(C)CC[C@]2(NC(=O)/C(C#N)=C/c3ccc(C(F)(F)F)cc3)CC[C@]3(C)[C@H](C(=O)C=C4[C@@]5(C)C=C(C#N)C(=O)C(C)(C)[C@@H]5CC[C@]43C)[C@@H]2C1 [Compound I-10] | 233 ± 10 | 234 ± 117 |  | 
